Assay results from publication PMC8333425, “Discovery of a dual Ras and ARF6 inhibitor from a GPCR endocytosis screen” (Nature Communications, 2021).

Columns and labels:
Rac/Cdc42 = Rac/Cdc42 BRET sensor (PAK-CRIB-RlucII / rGFP-CAAX), AT1R-mediated; type: cell-based, human
From the text: Since 21 inhibited both ERK1/2 and Akt activation by GPCRs and EGFR, we looked at a common target involved in both pathways. The small G protein Ras is an upstream regulator of both Ras-RAF-MEK-ERK and PI3K/Akt signaling pathways[35],[36]. Therefore, we explored 21’s ability to inhibit Ras activity using GST-Raf1-Ras-binding domain (RBD) in a pull-down assay. A reduction of 60% in GTP-bound Ras was noticed in pulled-down from cells treated with 21 and stimulated with either AT1R or EGFR, as compared to vehicle-treated cells (Fig. 4a, b). Complementary to this in vitro assay, we generated a Ras BRET assay, using the Raf-Ras binding domain tagged with RlucII (Raf1-RBD-RlucII) and the rGFP at the PM (rGFP-CAAX) (Supplementary Fig. 3c), to assess 21’s effects on Ras activation kinetics. […] Overexpression of either the active form of Ras (G12V) or SOS1 anchored at the PM (SOS-CAAX) produced a robust basal BRET signal that was no longer modulated by receptor activation (Supplementary Fig. 3d). […] 21’s potency to inhibit ARF6 and Ras is also consistent with its relative efficacy for inhibiting AT1R internalization and MAPK, respectively, when used at 50 μM (e.g., around 7 and 70 times the respective IC50s) (Figs. 2e and 3a). We also assessed if 21 was acting as a pan small G protein inhibitor by testing its effect on Rho and Rac/Cdc42. […] To assess Rac/Cdc42 activity, we generated a Rac/Cdc42 BRET sensor that consisted of the PAK-CRIB domain fused to RlucII (PAK-CRIB-RlucII) and the rGFP-CAAX (Supplementary Fig. 3e). PAK-CRIB, which binds to active Rac/Cdc42, was recruited to the PM upon AngII stimulation of cells and generated a robust BRET signal, which was blocked by the overexpression of the DN Rac1-T17N. Overexpression of the constitutively active Rac1-Q61L increased the basal BRET, which was no longer modulated by AT1R stimulation (Supplementary Fig. 3f).
HEK293SL cells were seeded at a density of 7.5 × 10^5 cells per 100-mm dish and 24 h later, transiently transfected as such. For receptor internalization experiments, cells were transfected with 0.12 μg AT1R-RlucII, B2R-RlucII, or β2AR-RlucII and 0.48 μg of either rGFP-CAAX (to assess removal from the PM) or rGFP-FYVE (to assess accumulation in the endosomes). For β-arrestin recruitment assays, cells were transfected with 0.48 μg of receptor-YFP along with 0.12 μg of β-arrestin-RlucII. For β-arrestin/AP-2 binding experiments, cells were transfected with 1 μg Flag-AT1R, 1 μg β2-Adaptin-YFP, and 0.12 μg β-arrestin2-RlucII. For G protein activation, cells were transfected with 3 μg of sp-Flag-AT1R along with either 4.5 μg of the Gαq-polycistronic BRET sensor or 0.24 μg of the Gαi3-RlucII and 0.6 μg of GFP10-Gγ2 and Gβ1 sensors or 0.12 μg PKN-RBD-RlucII and 0.48 μg of rGFP-CAAX. For PKC activation, cells were transfected with 3 μg of sp-Flag-AT1R and 0.18 μg of the PKC sensor. For GTPase activation experiments, cells were transfected with 1 μg Flag-AT1R, 0.48 μg of rGFP-CAAX, and either 0.12 μg of GGA3-PBD-RlucII, PAK-CRIB-RlucII or Raf-RBD-RlucII. For biosensor validation experiments, cells were additionally transfected with 500 ng Flag-K-Ras-WT, Flag-K-Ras-G12V, Flag-K-Ras-SOS-CAAX, HA-ARF6-WT, HA-ARF6-T27N, Myc-Rac1-WT, Myc-Rac1-Q61L or Myc-Rac1-T17N. For PI3K/Akt activation experiments, cells were transfected with 0.48 μg of rGFP-CAAX and 0.12 μg of Akt (PH)-RlucII. After 18 h of transfection, the media was replaced and cells were divided for subsequent experiments. Cells were detached and seeded onto poly-L-ornithine-coated 96-well flat white bottom plates (BrandTech Scientific) at a density of 2.5 × 10^4 cells per well in media. The next day, cells were washed once with Tyrode’s buffer (140 mM NaCl, 2.7 mM KCl, 1 mM CaCl2, 12 mM NaHCO3, 5.6 mM D-glucose, 0.5 mM MgCl2, 0.37 mM NaH2PO4, 25 mM HEPES, pH 7.4) and left in Tyrode’s buffer. […]

B2R = experiment: Confocal microscopy of YFP-tagged B2R internalization; type: cell-based, human; settings: 50 μM; BK
Method: One day before transfection, cells were seeded in 35-mm glass-bottom dishes (MatTek Corporation) at a density of 1 × 10^5 cells per dish. For the recordings of receptor internalization, HEK293 SL cells were transfected with 2 μg of AT1R-YFP. For the recordings of β-arrestin-2 recruitment to the receptor, HEK293SL cells were transfected with 50 ng of β-arrestin2-YFP and 250 ng of Flag-AT1R or HA-B2R. Forty-eight hours post-transfection, cells were serum starved, preincubated with DMSO (0.1% final concentration) or Rasarfin (50 μM) for 30 min at 37 °C. AT1R-expressing cells were stimulated with angiotensinII (AngII; 100 nM) and B2R-expressing cells were stimulated with bradykinin (BK; 1 μM) for 30 min (receptor-YFP) or 15 min (β-arrestin2-YFP). Cells were imaged with Zeiss LSM-510 and/or LSM-710 laser scanning confocal microscope. To detect YFP, […] and BP 505–550 nm emission filter. Images (2048 × 2048) were collected using a 63x oil immersion lens.

SMILES: CC(C)C(=O)N1CCN(c2ccc(NC(=O)c3cc4ccccc4o3)cc2Cl)CC1 [Compound 21]
- Rac/Cdc42 activation mediated by AT1R (BRET sensor) (Rac/Cdc42): failed to inhibit Rac/Cdc42 activation
- Rac MEAN (Fig.4d) (Rac/Cdc42; Log [Comp 21] (M) -4): 98.9456
- Rac MEAN (Fig.4d) (Rac/Cdc42; Log [Comp21] (M) -4.3): 92.4505
- Rac MEAN (Fig.4d) (Rac/Cdc42; Log [Comp21] (M) -5): 96.5837
- Rac MEAN (Fig.4d) (Rac/Cdc42; Log [Comp21] (M) -5.3): 100.464
- Rac MEAN (Fig.4d) (Rac/Cdc42; Log [Comp 21] (M) -6): 102.348
- Rac MEAN (Fig.4d) (Rac/Cdc42; Log [Comp21] (M) -6.3): 96.0354
- Rac MEAN (Fig.4d) (Rac/Cdc42; Log [Comp 21] (M) -7): 96.1409
- B2R localization by microscopy (B2R): remained trapped at the PM
